According to patent US4761398A, “Method of inducing birds to molt” (Embrex, Inc., priority 1986, dated 1988):

How the values were obtained:
[1] = Body weight of hens through the molt and production period; format: in vivo, single combed White Leghorn hens
Protocol: During the experiment, two birds were assigned to each cage (12"×18"). The hens were maintained in their cages for two weeks prior to the molt. They received a 17 hour light: 7 hour dark photoperiod throughout this phase of the experiment. During this time, the following parameters were measured:(a) body weight (weekly); (b) feed consumption (all hens received a common layer ration, and the feed consumed during this two week period was measured); (C) production records (daily); and (d), total egg weight, egg shell weight, and egg specific gravity (measured on three consecutive days each week). Serum samples were taken once, from 10 randomly selected hens from each treatment group, and saved for future study. After the two week pre-molt adjustment period, the hens were randomly assigned to each of eight different groups. These treatment groups were as follows: (1) control, (2) forced molt, (3) chemical molt-injected, (4) vehicle control-injected, (5) chemical molt-microcapsules A, (6) vehicle control-microcapsules A, (7) chemical molt-microcapsules B, and (8) vehicle control-microcapsules B. The hens then received a seven day pre-molt treatment of a 24 hour light, zero hour dark photoperiod. On day 14 of the experiment the photoperiod was then reduced to natural day length for all treatments. Feed was made available ad libitum for all groups except the forced molt group. The forced molt group was deprived of food, but not of water, until a 30% body weight loss occurred (10 days of fasting). [D-[…] ]LHRH was used as the LHRH receptor ligand for the chemical molt groups. The "chemical molt-injected" group received intramuscular (breast) injections of 25 micrograms/day of [D-[…] ]LHRH for 10 consecutive days beginning on day 14. Alternate pectoral (breast) areas were injected each day. The "chemical molt-microcapsule" groups received a single intramuscular (breast) injection of microencapsulated [D-[…] ]LHRH on day zero. This preparation of microcapsules provided a controlled release of 25 micrograms [D-[…] ]LHRH per day for 15 consecutive days. For all treatments, body weights were measured at day zero and every three days thereafter, until the forced molt group achieved a 30% weight loss. Serum samples were periodically collected from 10 hens randomly selected from each group, and saved for future analysis. The same 10 hens from each group were bled at each collection. On day 14, the microcapsule injected groups received intramuscular injections of lactide/glycolide copolymer microcapsules which had [D-[…] ]LHRH incorporated therein. The ligand-containing microcapsules administered the "Microcapsules A" group were prepared and supplied by Debiopharm (Lausanne, Switzerland). These microcapsules were prepared by a phase-separation process to produce a free-flowing powder of spherical particles consisting of [D-[…] ]LHRH (2% wt/wt) distributed within a polymeric matrix of 53:47(mol %) poly(DL-lactide-co-glycolide) (98% wt/wt) with an inherent viscosity of 0.7 dl/g. The microcapsules were 50 micrometers or less in diameter. […] Photomicrographs of similar microcapsules are presented in T. W. Redding, et al., Proc. Natl. Acad. Sci. […]. 1984). Microcapsules were suspended in disposable syringes in vehicle containing 2% carboxymethyl cellulose and 1% "TWEEN 20" in water. After thoroughly mixing the suspension, aliquots calculated to have released a dose of 25 micrograms/day for 15 consecutive days were injected into the breast muscle of the hens. We weighed the microcapsules directly into disposable 3 ml syringes. The plunger of a plugged syringe containing microcapsules (without vehicle) was pulled back to the 1.5-2 cc mark. The hub of the syringe was then placed against a vortex mixer and the syringe vortexed rapidly for about 20 seconds, or until most of the clumps of microbeads were broken and distributed along the barrel of the syringe. […]

[2] = system: single combed White Leghorn hens; experiment: Mortality; format: in vivo
Source text: After the two week pre-molt adjustment period, the hens were randomly assigned to each of eight different groups. These treatment groups were as follows: (1) control, (2) forced molt, (3) chemical molt-injected, (4) vehicle control-injected, (5) chemical molt-microcapsules A, (6) vehicle control-microcapsules A, (7) chemical molt-microcapsules B, and (8) vehicle control-microcapsules B.
[D-Trp^6 ]LHRH was used as the LHRH receptor ligand for the chemical molt groups. The "chemical molt-injected" group received intramuscular (breast) injections of 25 micrograms/day of [D-Trp^6 ]LHRH for 10 consecutive days beginning on day 14. Alternate pectoral (breast) areas were injected each day. The "chemical molt-microcapsule" groups received a single intramuscular (breast) injection of microencapsulated [D-Trp^6 ]LHRH on day zero. This preparation of microcapsules provided a controlled release of 25 micrograms [D-Trp^6 ]LHRH per day for 15 consecutive days.
On day 14, the microcapsule injected groups received intramuscular injections of lactide/glycolide copolymer microcapsules which had [D-Trp^6 ]LHRH incorporated therein. The ligand-containing microcapsules administered the "Microcapsules A" group were prepared and supplied by Debiopharm (Lausanne, Switzerland). […]

[D-Trp^6 ]LHRH [D-Trp^6 --LHRH]
MEAN BODY WEIGHT ([1]; Day 5, before treatment): 1.669 kg
MEAN BODY WEIGHT ([1]; Day 12, before treatment (treatment started day 13/14)): 1.722 kg
MEAN BODY WEIGHT ([1]; Day 17, 25 micrograms/day i.m.): 1.765 kg
MEAN BODY WEIGHT ([1]; Day 22, 25 micrograms/day i.m.): 1.704 kg
MEAN BODY WEIGHT ([1]; Day 27): 1.637 kg
MEAN BODY WEIGHT ([1]; Day 33): 1.654 kg
MEAN BODY WEIGHT ([1]; Day 40): 1.747 kg
MEAN BODY WEIGHT ([1]; Day 47): 1.760 kg
MEAN BODY WEIGHT ([1]; Day 54): 1.761 kg
MEAN BODY WEIGHT ([1]; Day 61): 1.802 kg
MEAN BODY WEIGHT ([1]; Day 75): 1.838 kg
MEAN BODY WEIGHT ([1]; Day Zero, before treatment): 1.720 kg
MORTALITY: Number of Hens That Died ([2]; Evaluated from day 28 to day 94): 0
mortality in words ([2]; groups that received the ligand): no mortality occurred
